According to PMC2854128, “A Target-Based High Throughput Screen Yields Trypanosoma brucei Hexokinase Small Molecule Inhibitors with Antiparasitic Activity” (PLoS Neglected Tropical Diseases, 2010):
“And” between values parts separate entries of the source, which are not always exact repeats. Identical values can stand only once. Like-named read-outs stand apart in the source and are kept apart here.

How the values were obtained:
TbHK1 [1] = target: T1, TbHK1 (Trypanosoma brucei brucei, UniProt Q38C42); assay: TbHK1 coupled enzyme HTS assay (G6PDH coupled, bacterially expressed rTbHK1); assay type: biochemical; settings: for Fold less potent upon resupply (TbHK1 IC50 versus cherry-picked compound): resupplied versus cherry-picked compound
Protocol: For purification of bacterially expressed TbHK1 (rTbHK1), a previously described protocol was modified to increase yield. Briefly, a starter culture of E. coli M15(pREP) harboring pQE30 (Qiagen, Valencia, CA) with the TbHK1 gene cloned in frame of a 6-His tagging sequence was grown in ECPM1 [9] and then inoculated into a 5 L bioreactor (Biostat B, B. Braun Biotech International, Allentown, PA) and grown at 37°C. At OD600 between 3–5, the culture was induced with IPTG (0.8 mM), grown without supplement O2 (37°C, 16 hr), and cells collected by centrifugation (5000×g, 20 min, 4°C). The pellet was resuspended in lysis buffer (50 mM NaPO4, pH 8.1, 5 mM glucose, 150 mM NaCl, and 0.1% Tween) and lysed by using a cell disruptor (Constant Cell Disruption Systems, Sanford, NC). The resulting supernatant was applied (5 ml/min) to a 50 ml ProBind column (Invitrogen, Eugene, OR) on a FPLC (GE Lifesciences, Piscataway, NJ) and protein eluted by gradient (5 to 250 mM imidazole) in lysis buffer. Fractions were screened using HK activity assays and Western blotting and those containing rTbHK1 were pooled, concentrated, and applied to a HiTrap SP HP column (GE Lifesciences, Piscataway, NJ).
TbHK1 assays were an adaptation of a coupled enzyme HK assay to a 384-well format, [10]. Briefly, test and control compounds (30 µM in 15 µL volume) were added to a 384 well black, opaque microtiter plate using a Velocity 11 V-prep (Santa Clara, CA) for a final test compound concentration of 10 µM. […] The 45 µL reaction mixture was incubated at RT for 2 hr and then quenched with 5 µL EDTA (500 mM). The resulting signal, which remained stable for up to 5 hr after addition of stop reagent, was collected on a Molecular Devices SpectraMax M5 (absorbance at OD340)(Sunnyvale, CA).

[2] = target: T2, human HK 4 (human glucokinase, hGlk) (Homo sapiens, UniProt P35557); assay: Specificity assay against human HK 4 (human glucokinase, hGlk); assay type: biochemical; settings: for inhibition at 10 µM: read-out: % Inhibition of hGlck (10 µM)
T2 construct: His tag (from pQE30); made in house; host or cells: E. coli M15 (pREP)
T2 sequence (P35557 1-465): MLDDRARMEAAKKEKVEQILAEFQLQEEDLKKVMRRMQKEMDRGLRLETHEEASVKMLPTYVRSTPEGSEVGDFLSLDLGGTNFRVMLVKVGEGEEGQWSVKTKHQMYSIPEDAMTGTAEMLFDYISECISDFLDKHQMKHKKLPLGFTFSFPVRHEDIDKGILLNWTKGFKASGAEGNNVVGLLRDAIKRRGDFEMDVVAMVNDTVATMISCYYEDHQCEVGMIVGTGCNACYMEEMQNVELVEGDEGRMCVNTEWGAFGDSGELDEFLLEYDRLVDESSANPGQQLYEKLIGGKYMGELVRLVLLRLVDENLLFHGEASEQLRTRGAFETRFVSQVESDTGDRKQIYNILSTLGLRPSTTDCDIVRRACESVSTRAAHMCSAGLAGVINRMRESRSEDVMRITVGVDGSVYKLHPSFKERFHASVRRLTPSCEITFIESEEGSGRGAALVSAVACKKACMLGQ
Protocol: Additional specificity assays were performed using human HK 4 (human glucokinase, hGlk, GenBank accession no. BC001890) that was expressed from a cloned cDNA (OPEN Biosystems, Huntsville, AL) in pQE30.

[3] = system: BSF T. brucei parasites (cell line 90-13, a 427 strain); assay: T. brucei BSF viability assay (CellTiter Blue); assay type: cell-based, Trypanosoma brucei; settings: for Toxicity to BSF at 10 µM: cell density after 72 hr; for EC50: Trypanosoma brucei
Protocol: CellTiter Blue (Promega, Madison WI) was added (20 µl) and the plates incubated an additional 3 hr under standard culture conditions.

[4] = system: PF T. brucei parasites (29-13, a 427 strain); assay: Procyclic form (PF) parasite growth assay; assay type: cell-based; settings: Trypanosoma brucei, A-427, 48 h, read-out: % PF Growth Inhibition (10 µM)
Protocol: Plates were then incubated for 1 hr under standard culture conditions. Fluorescence of samples was then characterized as above.

Leishmania promastigotes = assay: Leishmania promastigote specificity assay; assay type: cell-based, L. major; settings: 44 h
Protocol: Cell-based specificity assays were performed as previously described. Briefly, mammalian cell line and Leishmania promastigote assays were performed in final volumes of 25 µL using our previously described 384-well microtiter format. All mammalian cell lines were cultured and maintained in complete growth medium preparations according to ATCC specifications (ATCC, Manassas, VA). Leishmania promastigotes were cultured as previously described. […] Vehicle and positive controls were 1% and 10% DMSO, respectively. For mammalian cells, assay plates were incubated for 44–46 h at 37°C in the presence of 5% CO2 and for the Leishmania promastigotes, assay plates were incubated for 44 h at 28°C with 5% CO2. Five µL of CellTiter Blue reagent was added to each assay plate well and incubated for 2–4 h at 37°C with 5% CO2. Data were captured on a Molecular Devices SpectraMax M5 (excitation A560; emission A590).

[5] = target: T. brucei lysate-derived TbHK1 (Trypanosoma brucei brucei, UniProt Q38C42); assay: Inhibition assay of lysate-derived TbHK; assay type: biochemical; settings: read-out: IC50 against T. brucei lysate-derived TbHK1 enzymatic activity; 2×10^5 BSF cell equivalents, 15 min preincubation at RT
Protocol: (§1) Parasite lysates from BSF parasites were prepared by incubation (5 min on ice) of 1.5×10^7 cells in lysis buffer (0.1 M TEA, pH 7.4, and 0.1% Triton X-100) supplemented with 1 mM PMSF, 5 µg/ml leupeptin, and 100 µg/ml TLCK. In triplicate, cell equivalents (2×10^5) were incubated with increasing concentrations of inhibitor for 15 minutes at RT prior to initiation of the coupled reaction. In short, the 200 µl reactions included 50 mM TEA, pH 7.4, 33 mM MgCl2, 20 mM glucose, 5.25 mM ATP, 0.75 mM NADP, and 0.1 units of G6PDH, with kinetic analyses performed using KaleidaGraph 4.1 (Synergy Software, Reading, PA).

TbHK1 [6] = target: T1, TbHK1; assay: Kinetic analysis of TbHK1 inhibition with respect to ATP (Lineweaver-Burk); assay type: biochemical
Protocol: as §1
Assays were performed as described for cell lystates (see Materials and Methods) with ATP concentrations varied.

[7] = system: cellular G6P levels in BSF parasites; assay: Cellular G6P levels in BSF parasites grown with compound; assay type: cell-based, Trypanosoma brucei
[8] = cited from earlier work
TbHK1 [9] = target: T1, TbHK1; design: method as in Lyda and Morris, unpublished; settings: previously identified inhibitor; ref Lyda and Morris, unpublished; cited from earlier work
[10] = resupplied compound, bacterially expressed TbHK1, read-out: IC50 (µM) Resupply
[11] = A-427, bloodstream form parasites, 3 days (72 hr), read-out: BSF EC50
[12] = procyclic form parasites, 10 µM, 2 days
[13] = promastigotes, read-out: L. major EC50
[14] = A-427, 72 h, read-out: BSF EC50 (µM)

T1 sequence (Q38C42 entry or part of it): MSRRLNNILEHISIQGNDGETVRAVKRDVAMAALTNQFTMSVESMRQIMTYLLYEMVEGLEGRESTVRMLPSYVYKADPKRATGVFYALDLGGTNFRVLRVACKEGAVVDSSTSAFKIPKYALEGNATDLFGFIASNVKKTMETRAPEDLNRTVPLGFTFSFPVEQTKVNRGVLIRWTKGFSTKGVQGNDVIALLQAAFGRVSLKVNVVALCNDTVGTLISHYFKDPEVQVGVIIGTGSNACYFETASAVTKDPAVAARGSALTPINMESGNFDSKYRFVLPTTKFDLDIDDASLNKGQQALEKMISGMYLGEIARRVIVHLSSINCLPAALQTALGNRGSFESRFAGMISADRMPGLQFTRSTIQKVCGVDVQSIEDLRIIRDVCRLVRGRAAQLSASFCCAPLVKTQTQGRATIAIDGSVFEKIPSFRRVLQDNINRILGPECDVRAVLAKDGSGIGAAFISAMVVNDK
Sequence of T. brucei lysate-derived TbHK1 (Q38C42 entry or part of it): as above

Row | SMILES | IC50 (TbHK1 [1]; [10]) | inhibition at 10 µM ([2]; 10 µM compound) | Toxicity to BSF at 10 µM [3] | EC50 [3, 11] | inhibition at 10 µM [4, 12] | EC50 (Leishmania promastigotes; [13]) | also measured
1 | COc1ccc(C(=O)Nc2cc(Cl)ccc2C(=O)O)cc1 [SID 24797131] | 11.4 ± 3.2 µM | 6.3 ± 8.8% | not toxic | > 10 µM | 0% | > 12.5 µM | 
2 | Cc1ccccc1-n1sc2cc(F)ccc2c1=O [SID 24785302] | 4.2 ± 1 µM | 6.9 ± 4.2% |  | 0.042 ± 0.0028 µM | 47 ± 0.15% | 1.9 ± 0.2 µM | 
3 | O=c1c(O)c(-c2cc(O)c(O)c(O)c2)oc2cc(O)cc(O)c12 [myricetin, reference compound] |  |  |  |  |  |  | inhibition at 10 µM (TbHK1 [1]; 10 µM, LOPAC validation screen, duplicate, read-out: Inhibition of TbHK1 enzymatic activity at 10 µM (LOPAC screen)): ≥ 40%
4 | C/C(=C/CCC(C)[C@H]1CC[C@@]2(C)C3=C(CC[C@]12C)[C@@]1(C)CCC(=O)C(C)(C)[C@@H]1CC3)C(=O)O (some centres unmarked) [SID 22401406] |  | 0% | not toxic | > 10 µM | 0% | > 12.5 µM | IC50 (TbHK1 [1]): 2.3 ± 0.3 µM; % Inhibition of hGlck (10 µM) ([2]; 10 µM compound): minimal impact on the enzyme
5 | O=c1c2ccccc2[se]n1-c1ccccc1 [Ebselen, 2-phenyl-1,2-benzisoselenazol-3(2H)-one, reference compound] | 0.05 ± 0.03 µM | 97.8 ± 0.1% |  | 2.9 ± 0.28 µM | 51 ± 0.16% | 4.1 ± 0.4 µM | IC50 [5]: 0.43 ± 0.02 µM; Ki (TbHK1 [6]): 6.13 µM; Nature of TbHK1 inhibition (TbHK1 [6]; with respect to ATP): mixed inhibitors; Reduction in cellular G6P ([7]; 1 hour, 10 times the EC50 (30 µM ebselen, 1 µM SID 17387000), versus untreated parasites): 56%; Reduction in cellular G6P ([7]; 4 hours, 10 times the EC50 (30 µM ebselen, 1 µM SID 17387000), versus untreated parasites): 70%; Brain levels as percent of plasma levels [8]: 21%; Serum values ([8]; single oral dose (100 mg/kg)): 4 to 5 µM
6 | O=c1c(O)c(-c2ccc(O)c(O)c2)oc2cc(O)cc(O)c12 [quercetin] |  |  |  |  |  |  | IC50 (TbHK1 [9]): ~85 µM
7 | COC1=C/C(=C/C(C#N)=C2/NC3=C(CCCC3)S2)C=CC1=O [SID 17386310] | 33.6 ± 10.2 µM | 70.3 ± 3.6% |  | 0.038 ± 0.0038 µM | 50 ± 0.15% | 2.6 ± 0.1 µM | Fold less potent upon resupply (TbHK1 IC50 versus cherry-picked compound) (TbHK1 [1]): 7.5 fold; % Inhibition of hGlck (10 µM) ([2]; 10 µM compound): more potent inhibitor
8 | O=c1c2ccccc2sn1-c1nccs1 [SID 24830882] |  | 88.8 ± 4.9% |  |  |  |  | IC50 (TbHK1 [1]): 16.9 ± 0.1 µM; EC50 [3, 14]: 0.83 ± 0.2 µM; inhibition at 10 µM [4]: 8.6 ± 0.03%; EC50 (Leishmania promastigotes; read-out: L. major EC50 (µM)): > 12.5 µM
9 | O=C(Cn1sc2ccccc2c1=O)NC12CC3CC(CC(C3)C1)C2 [SID 16952891] | 2.6 ± 0.2 µM | 44.9 ± 9.9% |  | 0.3 ± 0.079 µM | 47 ± 0.15% | > 12.5 µM | 
10 | O=c1c2ccccc2sn1-c1ccccc1 [SID 17387000, 2-phenyl-1,2-benzisothiazol-3(2H)-one] |  |  |  |  |  |  | inhibition at 10 µM [2]: 6.7 ± 9.4%; EC50 [3, 14]: 0.03 ± 0.067 µM; inhibition at 10 µM [4]: 48 ± 0.15%; EC50 (Leishmania promastigotes; read-out: L. major EC50 (µM)): 1.9 ± 0.2 µM; Reduction in cellular G6P [7]: 29% and 18%
11 | CCCCCCCCCCCNC(=O)c1ccoc1C [SID 14728414] | 41.7 ± 3 µM | 1.9 ± 7% | not toxic | > 10 µM | 0% | > 12.5 µM | Fold less potent upon resupply (TbHK1 IC50 versus cherry-picked compound) (TbHK1 [1]): 6.6 fold; % Inhibition of hGlck (10 µM) ([2]; 10 µM compound): minimal impact on the enzyme
12 | CCOC(=O)Cc1csc(-n2sc3ccccc3c2=O)n1 [SID 3716597] | 9.3 ± 0.3 µM | 7.8 ± 7.1% | not toxic | > 10 µM | 27 ± 0.08% | > 12.5 µM | 
